Measurements published in patent US6642392B1 (priority 1997, dated 2003).
Read-outs that look alike come from different tables or passages of the source.

Tests used:
Type in all cases: in vivo
Phytophthora infestans = settings: for Test D disease control rating (100 = 100% disease control, 0 = no disease control): tomato seedlings sprayed to run-off, inoculated the following day, rating relative to controls, unmarked compounds (standard test rate); for Test D disease control rating: tomato late blight
Puccinia recondita = experiment: Test B: wheat leaf rust, preventive spray on wheat seedlings; settings: for Test B disease control rating (100 = 100% disease control, 0 = no disease control): wheat seedlings sprayed to run-off, inoculated the following day, rating relative to controls, unmarked compounds (standard test rate); for Test B disease control rating: wheat leaf rust
In short: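 Preventive test: P. recondita spores were applied one day after a run-off spray of compound suspension on wheat seedlings. Plants had 24 h at 20 °C in saturated air plus 6 days in a 20 °C growth chamber. Scoring is % disease control (100 = full) relative to controls.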

Botrytis cinerea = experiment: Test E: gray mold, preventive spray on cucumber seedlings; settings: for Test E disease control rating (100 = 100% disease control, 0 = no disease control): cucumber seedlings sprayed to run-off, inoculated the following day, rating relative to controls, unmarked compounds (standard test rate); for Test E disease control rating: gray mold on cucumber
In short: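 Preventive spray on cucumber seedlings used a suspension (3% acetone, 250 ppm Trem 014), applied to run-off one day before inoculation with Botrytis cinerea spores. Plants were held 48 h at 20° C in saturated air, then 5 days at 20° C. Percent disease control was scored relative to untreated plants.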

[1] = tested on: Eiysiphe graminis f. sp. tritici; experiment: Test A: wheat powdery mildew, preventive spray on wheat seedlings; settings: for Test A disease control rating (100 = 100% disease control, 0 = no disease control): wheat seedlings sprayed to run-off, inoculated the following day, rating relative to controls, unmarked compounds (standard test rate); for Test A disease control rating: wheat powdery mildew
In short: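 Preventive test: seedlings inoculated with powdery mildew spores one day after run-off spraying of a suspension. Ratings after 7 days in a 20° C growth chamber express percent disease control versus controls.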

Pyricularia oryzae = settings: for Test C disease control rating (100 = 100% disease control, 0 = no disease control): rice seedlings sprayed to run-off, inoculated the following day, rating relative to controls, unmarked compounds (standard test rate); for Test C disease control rating: rice blast
[2] = 100 = 100% disease control, 0 = no control, unmarked entries (standard test concentration)
[3] = 100 = 100% disease control, 0 = no control relative to controls, unmarked entries (standard test concentration)

SMILES	Test D disease control rating (Phytophthora infestans; tested at 40 ppm) [%]	Test B disease control rating (Puccinia recondita; tested at 40 ppm) [%]	Test E disease control rating (Botrytis cinerea; tested at 40 ppm) [%]	Test A disease control rating ([1]; tested at 40 ppm) [%]	Test C disease control rating (Pyricularia oryzae; tested at 40 ppm) [%]	Test D disease control rating (Phytophthora infestans; [2]) [%]	Test B disease control rating (Puccinia recondita; [2]) [%]	Test E disease control rating (Botrytis cinerea; [2]) [%]	Test A disease control rating [1, 3] [%]	Test C disease control rating (Pyricularia oryzae; [2]) [%]	also measured
CCC1(C(=O)NC(C)COc2c(F)ccc(F)c2F)C(C)C1(Cl)Cl (centres unmarked) [compound 233]											Test D disease control rating (100 = 100% disease control, 0 = no disease control) (Phytophthora infestans): 9%; Test B disease control rating (100 = 100% disease control, 0 = no disease control) (Puccinia recondita): 0%; Test E disease control rating (100 = 100% disease control, 0 = no disease control) (Botrytis cinerea): 6%; Test A disease control rating (100 = 100% disease control, 0 = no disease control) [1]: 62%; Test C disease control rating (100 = 100% disease control, 0 = no disease control) (Pyricularia oryzae): 94%
CCCc1ccccc1OCC(C)NC(=O)C1(CC)C(C)C1(Cl)Cl (centres unmarked) [98b]	0	0	0	52	74						
CCC1(C(=O)NC(C)COc2ccc(F)cc2Cl)C(C)C1(Cl)Cl (centres unmarked) [compound 121]	0	0	0	71	53						
CC(CCn1cc(Cl)cc1C#N)NC(=O)C(C#N)C(C)C(C)(C)C (mixture of isomers) [compound 74]						23	86	0	0	53	
CCCc1cccc(C#N)c1OCC(C)NC(=O)C(C#N)C(C)(C)C (mixture of isomers) [compound 205]						0	68	0	0	74	
C[C@H](COc1cc(Cl)c(Cl)cc1Cl)NC(=O)C(C#N)C(C)(C)C (single isomer, unassigned) [174a]						54	0	0	0	31	
C#CC(C)(C=C)C(C#N)C(=O)NC(C)COc1cc(Cl)ccc1F (mixture of isomers) [compound 302]											Test D disease control rating (100 = 100% disease control, 0 = no disease control) (Phytophthora infestans): 24%; Test B disease control rating (100 = 100% disease control, 0 = no disease control) (Puccinia recondita): 0%; Test E disease control rating (100 = 100% disease control, 0 = no disease control) (Botrytis cinerea): 0%; Test A disease control rating (100 = 100% disease control, 0 = no disease control) [1]: 0%; Test C disease control rating (100 = 100% disease control, 0 = no disease control) (Pyricularia oryzae): 99%
CCC1(C(=O)NC(C)COc2ccc(Br)cc2)C(C)C1(Cl)Cl (mixture of isomers) [86b]	28	0	0	52	0						
CCC1(C(=O)NCCCn2cccc2)C(C)C1(Cl)Cl (centres unmarked) [compound 145]						20	9	0	0	0	
Cc1ccc(OC[C@@H](C)NC(=O)C(C#N)C(C)(C)C)c(Cl)c1 (single isomer, unassigned) [14b]						23	0	0	61	86	
CCC1(C(=O)NC(C)COc2ccc(Cl)cc2Cl)C(C)C1(Cl)Cl (centres unmarked) [compound 112]	0	0	0	71	0						
CC(C)(C)C(C#N)C(=O)NCCCn1c(C#N)cc(Cl)c1Cl (racemic) [compound 55]						0	0	0	0	85	
CCC1(C(=O)NC(C)COc2ccccc2C(F)(F)F)C(C)C1(Cl)Cl (mixture of isomers) [94b]	0	0	0	71	0						
